How the values were obtained:
[1] = Applicant's finding on therapeutic activity of NAD+ versus NADH for the disclosed uses
Description: As such, Applicant believes NAD+ alone is responsible for the activities disclosed herein. […] Applicant therefore defines NADH as having a negative net NAD+ value.

[2] = cited from earlier work
[3] = system: hair growth (follicular stimulation; SIRT1 enzyme); assay: Database trial: weekly scalp micro injections of SIRT1 activator (NAD+), hair growth followed by trichoscan; format: in vivo, human
Method: All six patients underwent weekly micro injections to the subcutaneous fatty layer of the affected layer of the scalp using 4 ml of a SIRT1 Activator (NAD+) over a 24 week period using a commercially available Biophymed CE certified U225 mesotherapy device. The SIRT 1 activator was specially prepared from our written protocol.
Patients were followed for safety and tolerability as well as for monitoring differences in hair growth. In order to track progress over time, we employed global photography, and a 60 second patient observational assessment tool based on a standardized 60 second hair count protocol, haircount and trichoscan analysis (Fotofinder); Trichoscan analysis allows us to quantitatively track the following parameters: hair count, hair density, anagen/telogen rates, along with cumulative hair thickness Patients were asked to return to the clinic at 6 weeks, 12 weeks after the intervention.

SMILES	therapeutic effectiveness for the uses disclosed [1]	stability of solutions ([2]; 4° C. and neutral pH)	stability of solutions in acids or alkalis ([2]; acids or alkalis)	average increase in hair count ([3]; 12 week trichoscan parameters, six patients, weekly micro injections of 4 ml to subcutaneous fatty layer of scalp) [%]	preliminary results of hair growth trial ([3]; overall conclusion of the trial)
NC(=O)C1=CN([C@@H]2O[C@H](COP(=O)(O)OP(=O)(O)OC[C@H]3O[C@@H](n4cnc5c(N)ncnc54)[C@H](O)[C@@H]3O)[C@@H](O)[C@H]2O)C=CC1 [NADH, reference compound]	entirely inactive				
NC(=O)c1ccc[n+]([C@@H]2O[C@H](COP(=O)([O-])OP(=O)(O)OC[C@H]3O[C@@H](n4cnc5c(N)ncnc54)[C@H](O)[C@@H]3O)[C@@H](O)[C@H]2O)c1 [NAD+, Nicotinamide adenine dinucleotide]	therapeutically effective	stable for about a week	decompose rapidly	21	statistically significant and positive

— patent US20170266218A1, “NAD+ COENZYME FORMULATION AND METHODS OF MAKING AND USING THE SAME” (Steve McNerlin, priority 2016, published 2017)
